# Reference: US6770740B1, “Crosslinked DNA condesate compositions and gene delivery methods” (The Regents of the University of Michigan, priority 1999, dated 2004)
# Where no end group is shown, it is not given here. The star is where a group is joined. Carboxymethyl = O=C(O)C*
# Key:
# HepG2 cells [1] = experiment: Cell binding of 125I-DNA condensates, Example 1; format: cell-based; settings: 5 h transfection, 10 μg 125I-DNA condensates
# Protocol: Iodinated plasmid DNA was prepared with specific activity of 300 nCi per μg of DNA as described previously (Teribesi et al., 1998). Prior to forming DNA condensates, the specific activity of the ^125I DNA was adjusted to 4.5 nCi per μg of DNA by combining with unlabeled plasmid. DNA condensates were prepared using AlkCWK18, PEG-SS-CWK18 or PEG-VS-CWK18 as described above. Peptide ^125I-DNA condensates (10 μg) were used to transfer HepG2 cells for 5 h according to the procedure described above. The radioactive media was removed, cells were washed with phosphate buffered saline, harvested with lysis buffer, and the cell-associated radioactivity was quantified by gamma counting.
# [2] = Particle size and zeta potential of peptide DNA condensates after freeze-drying and rehydration, Example 2; format: physicochemical
# Protocol: The concentration of AlkCWK18 and PEG-CWK18 were determined by UV absorbance (Trp, ε280 nm=5,600 M^−1 cm^−1). Peptide DNA condensates were prepared in 5 mM Hepes pH 5 at a peptide/DNA stoichiometry of 0.3 nmol of peptide/μg of DNA. The condensates were formed by adding 450 μL of 100 μg/mL NT-βGal drop wise to 450 μL of 30 nmol/mL AlKCWK18 or PEG-CWK18 while vortexing. Each sample was prepared in triplicate, and after a 30 min equilibration, 20-100 μL of 50 wt/vol % solutions of either glucose, mannitol, galactose, dextran or sucrose were added followed by normalization to 1 mL to give a final sugar concentration of 1-5 wt/vol % and DNA concentration of 50 μg/mL.
# The mean particle size of 50 μg/mL AlkCWK18 DNA condensates were determined by quasielastic light scattering (QELS) on a Brookhaven ZetaPlus™. Samples (1 mL) were frozen rapidly in dry ice ethanol in a 1.5 mL microcentrifuge tube and then lyophilized on a Labconco™ freeze dryer for 24 h operated at a constant vacuum of 55×10^−6 mBar while maintained at room temperature (22° C.). The maximal vacuum was achieved within 2 min after applying the sample.
# At the highest sucrose concentration of 5 wt/vol %, samples remained frozen throughout freeze-drying but dried to form a glassy solid after 24 h. […] Freeze-dried samples prepared in triplicate were reconstituted in 1 mL of deionized water, allowed to equilibrate for 30 min and then analyzed by QELS as described above. Large peptide DNA condensates were measured by light microscopy with magnification of 100X. The particle size of PEG-peptide DNA condensates were also measured by transmission electron microscopy (TEM) according to a published procedure (Wadhwa et al., 1997).
# The relationship between pH and rehydrated peptide DNA condensate particle size was examined in 5 mM Hepes at a pH range of 3-7. The particle size of 50 μg/mL DNA condensates in 5 wt/vol % sucrose was determined by QELS before and after freeze-drying as described above.
# The rehydrated particle size of AlkCWK18 or PEG-CWK18 DNA condensates were also examined at a concentration of 0.05-5 mg/mL in 5 mM Hepes pH 5 with (AlkCWK18 DNA) or without (PEG-CWK18 DNA) the addition of 5 wt/vol % sucrose. DNA condensates were freeze-dried and reconstituted to the original concentration. QELS particle size analysis before and after freeze-drying required dilution of an aliquot of the sample to concentration of 50 μg/mL. Freeze-dried 5 mg/mL PEG-CWK18 DNA condensates were also reconstituted in 0.9 wt/vol % sodium chloride and analyzed for particle size.
# HepG2 cells [3] = experiment: Luciferase reporter gene expression in HepG2 cells, Example 5; format: cell-based
# Protocol: HepG2 cells (1.5×10^5) were plated on 6×35 mm wells and grown to 40-70% confluency in MEM supplemented with 10% FBS, penicillin and streptomycin (10,000 U/ml), sodium pyruvate (100 mM), and L-glutamine (200 mM). Transfections were performed in MEM (2 ml per 35 mm well) with 2% FBS and 80 μM chloroquine. Peptide DNA condensates (10 μg of DNA in 0.2 ml HBM) were added dropwise to triplicate wells. After a 5 h incubation at 37° C., the media was replaced with MEM supplemented with 10% FBS. After 24 h, cells were washed twice with ice-cold phosphate buffered saline (calcium and magnesium free) and then treated with 0.5 ml of ice-cold lysis buffer (25 mM Tris chloride pH 7.8, 1 mM EDTA, 8 mM magnesium chloride, 1% Triton X-100, 1 mM DTT) for 10 min. The cell lysate was scraped, transferred to 1.5 ml microcentrifuge tubes, and centrifuged for 7 min at 13,000 g at 4° C. to pellet debris.
# Lysis buffer (300 μl), sodium-ATP (4 μl of a 180 mM solution, pH 7, 4° C.) and cell lysate (100 μl, 4° C.) were combined in a test tube, briefly mixed and immediately placed in the luminometer. Luciferase relative light units (RLU) were recorded on a Lumat™ LB 9501 (Berthold systems, Germany) with 10 sec integration after automatic injection of 100 μl of 0.5 mM D-luciferin (prepared fresh in lysis buffer without DTT). The RLU were converted in fmol using a standard curve generated by adding a known amount of luciferase (0.01 to 100 fmols with specific activity of 2.5 nU/fmol) to 35 mm wells containing 40-70% confluent HepG2 cells. The cells were processed as described above resulting in a standard curve with an average slope of 7.8×10^6 RLU per fmol of enzyme. Protein concentrations were measured by Bradford assay using bovine serum albumin as a standard (Bradford, 1976). The amount of luciferase recovered in each sample was normalized to milligrams of protein and reported as the mean and standard deviation obtained from triplicate transfections.
# LipofectAce™ (Gibco BRL, 1:2.5 w/w dimethyl diotadecylammonium bromide and dioleoyl phosphatidylethanolamine) was used to mediate gene transfection according to the manufacturer's instructions. The ratio of DNA to LepofectAce™ was optimized for HepG2 cells. An optimal DNA/LipofectAce™ ratio was achieved by dissolving 10 μg of DNA in 100 μl serum free media (SFM) followed by adding 60 μl of LipofectAce™ prepared in 140 μl of SFM. The LipfectAce™ DNA complex was then diluted with 1.7 ml of SFM and used to transfect HepG2 cells for 5 h followed by replacing the transfecting media with media supplemented with 10% FBS. The cells were incubated for a total of 24 h, harvested and analyzed for luciferase as described above.
# COS 7 cells = experiment: Luciferase reporter gene expression in COS 7 cells, Example 5; format: cell-based
Substance,"cell associated 125I-DNA, percent of dose (HepG2 cells [1])",minimum sucrose concentration to bulk DNA condensates during freeze-drying ([2]; 50 μg/ml DNA condensates) [wt/vol %],"diameter of fibrous flocculates after freeze-drying and rehydration without lyoprotectant ([2]; 50 μg/ml DNA condensates, light microscopy)","upper limit of DNA condensate concentration below which rehydrated particle size was maintained ([2]; 5 wt/vol % sucrose, 5 mM Hepes pH 5) [µg/mL]","mean particle diameter during rehydration ([2]; 5 wt/vol % sucrose, DNA concentrations up to 200 μg/mL)",zeta potential ([2]; pH 3),chloroquine enhancement of gene expression relative to that of AlkCWK18 DNA condensates (HepG2 cells [3]),increase in gene expression over polylysine1007 or LipofectAce (HepG2 cells [3]; HepG2) [fold],"increase in luciferase gene expression relative to AlkCWK18 DNA condensates (HepG2 cells [3]; HepG2, 80 μM chloroquine, 24 h) [fold]",increase in luciferase gene expression relative to AlkCWK18 (COS 7 cells) [fold]
Alk-S-Cys-Trp-Lys18 (C(Carboxymethyl)WKKKKKKKKKKKKKKKKKK) [AlkCWK18],Approximately 14%,1,approximately 100 μm,200,less than 50 nm,+30 mV,–,–,–,–
Cys-Trp-Lys17-Cys (CWKKKKKKKKKKKKKKKKKC) [Peptide II],–,–,–,–,–,–,approximately 5 fold,5,60,10
